In brackets after ≈: the same amount, converted by molar mass. Read-outs that look alike come from different tables or passages of the source. One block for each compound: values may come before it.
Key:
S.aureus 6538 = assay: Antibacterial spectrum (MIC), agar dilution; format: cell-based
Experimental: (§1) In vitro activity was determined by minimum inhibitory concentration in a microorganism spectum by the agar dilution method in Mueller Hinton agar.

E.cloacae 908SSi = assay: Antibacterial spectrum (MIC), agar dilution; format: cell-based
Experimental: as §1

C.freundii 43 = assay: Antibacterial spectrum (MIC), agar dilution; format: cell-based
Experimental: as §1

S.marcescens 69438 = assay: Antibacterial spectrum (MIC), agar dilution; format: cell-based
Experimental: as §1

X.maltophilia 1AC739 = assay: Antibacterial spectrum (MIC), agar dilution; format: cell-based
Experimental: as §1

M.catarrhalis RA21 = assay: Antibacterial spectrum (MIC), agar dilution; format: cell-based
Experimental: as §1

E.faecalis 6 = assay: Antibacterial spectrum (MIC), agar dilution; format: cell-based
Experimental: as §1

N.meningitidis 69480 = assay: Antibacterial spectrum (MIC), agar dilution; format: cell-based
Experimental: as §1

E.coli 25922 = assay: Antibacterial spectrum (MIC), agar dilution; format: cell-based
Experimental: as §1

L.monocytogenes BK23 = assay: Antibacterial spectrum (MIC), agar dilution; format: cell-based
Experimental: as §1

P.aeruginosa 27853 = assay: Antibacterial spectrum (MIC), agar dilution; format: cell-based
Experimental: as §1

S.pneumoniae Q19 = assay: Antibacterial spectrum (MIC), agar dilution; format: cell-based
Experimental: as §1

B.fragilis ATCC25285 = assay: Antibacterial spectrum (MIC), agar dilution; format: cell-based
Experimental: as §1

P.mirabilis 2117 = assay: Antibacterial spectrum (MIC), agar dilution; format: cell-based
Experimental: as §1

C.difficile ZH1 = assay: Antibacterial spectrum (MIC), agar dilution; format: cell-based
Experimental: as §1

S.agalactiae QK44 = assay: Antibacterial spectrum (MIC), agar dilution; format: cell-based
Experimental: as §1

H.influenzae 1 = assay: Antibacterial spectrum (MIC), agar dilution; format: cell-based
Experimental: as §1

S.aureus 734 MRSA = assay: Antibacterial spectrum (MIC), agar dilution; format: cell-based
Experimental: as §1

S.pyogenes B15 = assay: Antibacterial spectrum (MIC), agar dilution; format: cell-based
Experimental: as §1

M.morganii 6H-137 = assay: Antibacterial spectrum (MIC), agar dilution; format: cell-based
Experimental: as §1

P.asaccharolyticus 29743 = assay: Antibacterial spectrum (MIC), agar dilution; format: cell-based
Experimental: as §1

K.pneumoniae 418 = assay: Antibacterial spectrum (MIC), agar dilution; format: cell-based
Experimental: as §1

E.cloacae 908R = assay: Antibacterial spectrum (MIC), agar dilution; format: cell-based
Experimental: as §1

C.freundii 902 = assay: Antibacterial spectrum (MIC), agar dilution; format: cell-based
Experimental: as §1

Acinetobacter sp.51-156 = assay: Antibacterial spectrum (MIC), agar dilution; format: cell-based
Experimental: as §1

S.viridans group 016 = assay: Antibacterial spectrum (MIC), agar dilution; format: cell-based
Experimental: as §1

P.vulgaris 1028 = assay: Antibacterial spectrum (MIC), agar dilution; format: cell-based
Experimental: as §1

E.faecalis = assay: In vitro activity against selected species (MIC50, MIC90, range); format: cell-based; settings: Enterococcus faecalis, medium MHA
Experimental: as §1

S.aureus MRSA = assay: as above; format: cell-based; settings: Staphylococcus aureus, medium MHA (Mueller Hinton Agar) +NaCl
Experimental: as §1

S.aureus MSSA = assay: as above; format: cell-based; settings: Staphylococcus aureus, medium MHB (Mueller Hinton Broth)
S.aureus Smith = assay: Efficacy against systemic infections (septicemia) in mice; format: in vivo; settings: Staphylococcus aureus, 96 h, sc 1 and 3 h after challenge, survival day 4
Experimental: (§2) Septicemia was induced in outbred Swiss albino mice (Jbm MoRo [specific pathogen free]; weight 16 to 20 g, Biomedical Research Laboratories, Füllinsdorf, Switzerland). Mice were infected by intraperitoneal injection of diluted overnight cultures of the test organisms. Bacterial challenge doses were 4-10 times the number of organisms required to kill 50% of untreated animals within 48 h. The test compounds were administered p.o. or s.c. 1 and 3 h after the bacterial challenge. To treat the infection with Pseudomonas aeruginosa BA an additional dose was given 5 h after challenge. Control and treatment groups at each dose were composed of five mice each. The 50% effective dose (ED50, in milligrams per kilogram) was calculated by probit analysis as described by Finney (Finney, D.J. 1978, Statistical method in biological assay, 3rd ed. Charles Griffin & Co., Ltd., London), from the survival rates on day 4 after infection.

Escherichia coli 25922 = assay: as above; format: in vivo; settings: 96 h, survival day 4
Experimental: as §2

E.faecium = assay: In vitro activity against selected species (MIC50, range); format: cell-based; settings: Enterococcus faecium, medium MHA
Experimental: as §1

S.pneumoniae PEN-R = assay: In vitro activity against selected species (MIC50, MIC90, range); format: cell-based; settings: Streptococcus pneumoniae; for MIC: MIC range
[1] = Staphylococcus aureus, read-out: MIC
[2] = Enterobacter cloacae, read-out: MIC
[3] = Citrobacter freundii, read-out: MIC
[4] = medium IsoB (Isosensitest Broth)

MIC (S.aureus 6538; [1]): 4 µg/mL (≈ 7.21 µM)
MIC (E.cloacae 908SSi; [2]): 0.25 µg/mL (≈ 0.451 µM)
MIC (C.freundii 43; [3]): 32 µg/mL (≈ 57.7 µM)
MIC (S.marcescens 69438; Serratia marcescens, read-out: MIC): 0.25 µg/mL (≈ 0.451 µM)
MIC (X.maltophilia 1AC739; Stenotrophomonas maltophilia, read-out: MIC): > 32 µg/mL
MIC (M.catarrhalis RA21; Moraxella catarrhalis, read-out: MIC): 1 µg/mL (≈ 1.8 µM)
MIC (E.faecalis 6; Enterococcus faecalis, read-out: MIC): > 32 µg/mL
MIC (N.meningitidis 69480; Neisseria meningitidis, read-out: MIC): < 0.01 µg/mL
MIC (E.coli 25922; Escherichia coli, read-out: MIC): ≤ 0.06 µg/mL
MIC (L.monocytogenes BK23; Listeria monocytogenes, read-out: MIC): > 16 µg/mL
MIC (P.aeruginosa 27853; Pseudomonas aeruginosa, read-out: MIC): 16 µg/mL (≈ 28.9 µM)
MIC (S.pneumoniae Q19; Streptococcus pneumoniae, read-out: MIC): ≤ 0.06 µg/mL
MIC (B.fragilis ATCC25285; Bacteroides fragilis, read-out: MIC): 16 µg/mL (≈ 28.9 µM)
MIC (P.mirabilis 2117; Proteus mirabilis, read-out: MIC): ≤ 0.06 µg/mL
MIC (C.difficile ZH1; Clostridioides difficile, read-out: MIC): > 32 µg/mL
MIC (S.agalactiae QK44; Streptococcus agalactiae, read-out: MIC): ≤ 0.06 µg/mL
MIC (H.influenzae 1; Haemophilus influenzae, read-out: MIC): < 0.06 µg/mL
MIC (S.aureus 734 MRSA; [1]): > 32 µg/mL
MIC (S.pyogenes B15; Streptococcus pyogenes, read-out: MIC): ≤ 0.06 µg/mL
MIC (M.morganii 6H-137; Morganella morganii, 6H137, read-out: MIC): ≤ 0.06 µg/mL
MIC (P.asaccharolyticus 29743; Peptoniphilus asaccharolyticus, read-out: MIC): 0.25 µg/mL (≈ 0.451 µM)
MIC (K.pneumoniae 418; Klebsiella pneumoniae, read-out: MIC): ≤ 0.06 µg/mL
MIC (E.cloacae 908R; [2]): > 32 µg/mL
MIC (C.freundii 902; [3]): 0.25 µg/mL (≈ 0.451 µM)
MIC (Acinetobacter sp.51-156; SP.51156, read-out: MIC): 32 µg/mL (≈ 57.7 µM)
MIC (S.viridans group 016; Streptococcus viridans, read-out: MIC): 0.25 µg/mL (≈ 0.451 µM)
MIC (P.vulgaris 1028; Proteus vulgaris, read-out: MIC): 0.12 µg/mL (≈ 0.216 µM)
MIC50 (E.faecalis): > 32 µg/mL
MIC90 (E.faecalis): > 32 µg/mL
MIC (S.aureus MRSA; MIC range): > 32 µg/mL
MIC50 (S.aureus MRSA): > 32 µg/mL
MIC90 (S.aureus MRSA): > 32 µg/mL
MIC (S.aureus MSSA; MIC range): 2 to 16 µg/mL (≈ 3.61 to 28.9 µM)
MIC50 (S.aureus MSSA): 4 µg/mL (≈ 7.21 µM)
MIC90 (S.aureus MSSA): 16 µg/mL (≈ 28.9 µM)
MIC (E.faecium; MIC range): > 32 µg/mL
MIC50 (E.faecium): > 32 µg/mL
MIC (S.pneumoniae PEN-R; [4]): 0.1 to 2 µg/mL (≈ 0.18 to 3.61 µM)
MIC (S.pneumoniae PEN-R; medium IsoB + 20% serum): 1 to 8 µg/mL
MIC50 (S.pneumoniae PEN-R; [4]): 0.5 µg/mL (≈ 0.902 µM)
MIC90 (S.pneumoniae PEN-R; [4]): 1 µg/mL (≈ 1.8 µM)
MIC50 (S.pneumoniae PEN-R; medium IsoB + 20% serum): 4 µg/mL
Structure (SMILES): CO/N=C(\C(=O)N[C@@H]1C(=O)N2C(C(=O)O)=C(CSc3nc(=O)c(=O)[nH]n3C)CS[C@H]12)c1csc(N)n1 [Ceftriaxone, [6R-[6 α,7 β(Z)]]-7-[[(2-Amino-4-thiazolyl)(methoxyimino)acetyl]amino]-8-oxo-3-[[(1,2,5,6-tetrahydro-2-methyl-5,6-dioxo-1,2,4-triazin-3-yl)thio]methyl]-5-thia-1-azabicyclo[4.2.0]oct-2-ene-2-carboxylic acid, reference compound]
ED50 (S.aureus Smith): < 2 mg/kg
ED50 (Escherichia coli 25922; Escherichia coli 25922, po (orally) 1 and 3 h after challenge): 0.9 mg/kg
ED50 (Escherichia coli 25922; Escherichia coli, E.coli 25922, sc 1 and 3 h after challenge): ≤ 0.01 mg/kg

MIC (S.aureus 6538): 1 µg/mL (≈ 1.85 µM)
MIC (E.cloacae 908SSi): ≤0.12 µg/mL
MIC (C.freundii 43): 2 µg/mL (≈ 3.69 µM)
MIC (S.marcescens 69438): 0.5 µg/mL (≈ 0.923 µM)
MIC (X.maltophilia 1AC739): >32 µg/mL
MIC (M.catarrhalis RA21): >16 µg/mL
MIC (E.faecalis 6): 1 µg/mL (≈ 1.85 µM)
MIC (N.meningitidis 69480): ≤0.06 µg/mL
MIC (E.coli 25922): ≤0.12 µg/mL
MIC (L.monocytogenes BK23): 8 µg/mL (≈ 14.8 µM)
MIC (P.aeruginosa 27853): 16 µg/mL (≈ 29.5 µM)
MIC (S.pneumoniae Q19): 0.12 µg/mL (≈ 0.222 µM)
MIC (B.fragilis ATCC25285): 4 µg/mL (≈ 7.39 µM)
MIC (P.mirabilis 2117): ≤0.12 µg/mL
MIC (C.difficile ZH1): 16 µg/mL (≈ 29.5 µM)
MIC (S.agalactiae QK44): 0.5 µg/mL (≈ 0.923 µM)
MIC (H.influenzae 1): 0.25 µg/mL (≈ 0.462 µM)
MIC (S.aureus 734 MRSA): 8 µg/mL (≈ 14.8 µM)
MIC (S.pyogenes B15): ≤0.06 µg/mL
MIC (M.morganii 6H-137): ≤0.12 µg/mL
MIC (P.asaccharolyticus 29743): ≤0.25 µg/mL
MIC (K.pneumoniae 418): ≤0.12 µg/mL
MIC (E.cloacae 908R): 4 µg/mL (≈ 7.39 µM)
MIC (C.freundii 902): ≤0.12 µg/mL
MIC (Acinetobacter sp.51-156): 32 µg/mL (≈ 59.1 µM)
MIC (S.viridans group 016): 1 µg/mL (≈ 1.85 µM)
MIC (P.vulgaris 1028): 4 µg/mL (≈ 7.39 µM)
Structure (SMILES): Nc1nc(/C(=N/O)C(=O)N[C@@H]2C(=O)N3C(C(=O)O)=C(/C=C4\CCN(c5cccnc5)C4=O)CS[C@H]23)cs1 [K, [6R-[3(E),6α,7β(Z)]]-7-[[(2-Amino-4-thiazolyl)(hydroxyimino)acetyl]-amino]-8-oxo-3-[[2-oxo-1-(3-pyridinyl)-3-pyrrolidinylidene]methyl]-5-thia-1-azabicyclo[4.2.0]oct-2-ene-2-carboxylic acid]
